Measurements as given in ChEMBL document CHEMBL4229325, “Angiogenesis and cancer stem cells: New perspectives on therapy of ovarian cancer” (Eur J Med Chem, 2017).

Columns and labels:
[1] = Cytotoxicity against human A2780/DX cells assessed as cell viability at 4 uM incubated for 72 hrs by MTT assay; format: functional; conditions: read-out: Activity
[2] = Growth inhibition of human ovarian epithelial cancer cells at 0.5 uM in presence of 20 nM PTX; format: functional
[3] = tested on: 2008; test: Cytotoxicity against human OV2008 cells assessed as reduction in cell viability incubated for 72 hrs by MTT assay; format: functional, cell-based; conditions: Homo sapiens, 2008, 72 h
[4] = Growth inhibition of human ovarian cancer stem cells at 0.5 uM in presence of 20 nM PTX; format: functional
[5] = tested on: 2008; test: Cytotoxicity against human OV2008 cells assessed as reduction in cell viability incubated for 48 hrs by MTT assay; format: functional, cell-based; conditions: Homo sapiens, 2008, 48 h
[6] = tested on: OVCAR-8; test: Cytotoxicity against human OVCAR8 cells assessed as cell viability level at 4 uM incubated for 72 hrs by MTT assay; format: functional
[7] = tested on: C13; test: Antitumor activity against human C13 cells xenografted in mouse assessed as tumor volume at 5 mg/kg, ip dosed every other day for 3 weeks and measured every two days (reference value: 252.5 +/- 63.4 mm3); format: functional
[8] = tested on: NCI/ADR-RES; test: Cytotoxicity against human NCI-ADR-RES cells assessed as cell viability at 8 uM incubated for 72 hrs by MTT assay; format: functional; conditions: read-out: Activity
[9] = Cytotoxicity against human A2780/DX cells assessed as cell viability at 8 uM incubated for 72 hrs by MTT assay; format: functional; conditions: read-out: Activity
[10] = tested on: NCI/ADR-RES; test: Cytotoxicity against human NCI-ADR-RES cells assessed as cell viability at 4 uM incubated for 72 hrs by MTT assay; format: functional; conditions: read-out: Activity
[11] = tested on: OVCAR-8; test: Cytotoxicity against human OVCAR8 cells assessed as cell viability level at 8 uM incubated for 72 hrs by MTT assay; format: functional
[12] = tested on: 2008; test: Cytotoxicity against human OV2008 cells assessed as reduction in cell viability incubated for 24 hrs by MTT assay; format: functional, cell-based; conditions: Homo sapiens, 2008, 24 h
[13] = Cytotoxicity against human A2780cis cells assessed as cell viability at 8 uM incubated for 72 hrs by MTT assay; format: functional; conditions: read-out: Activity

For `CC[C@@H](C(=O)[C@@H](C)[C@@H](O)[C@H](C)[C@@H]1O[C@@H]([C@@H](CC)C(=O)O)CC[C@@H]1C)[C@H]1O[C@]2(C=C[C@@H](O)[C@]3(CC[C@@](C)([C@H]4CC[C@](O)(CC)[C@H](C)O4)O3)O2)[C@H](C)C[C@@H]1C` [SALINOMYCIN], the viability at 4 µM [1] was 50%, the “growth inhibition (GI)” value [2] was 58% and the IC50 [3] was 3.2 µM. For the same molecule, the “growth inhibition (GI)” value [4] was 59%, the IC50 [5] was 4.78 µM and the Activity [6] was 53%. The Activity [7] was 84.2 mm3, the viability at 8 µM [8] was 37% and the viability at 8 µM [9] was 43%. For the same molecule, the viability at 4 µM [10] was 50%, the Activity [11] was 45% and the IC50 [12] was 7.44 µM. It also gave a viability at 8 µM [13] of 55%.
